Laboratory results taken from patent US20110269828A1, “COMPOSITIONS AND METHODS FOR TREATING AND PREVENTING WEIGHT-RELATED DISORDERS IN COMPANION ANIMALS” (Hill's Pet Nutrition, Inc., priority 2008, published 2011).

How the values were obtained:
GSH:GSSG ratio = assay: Change in GSH:GSSG ratio in blood cells of dogs consuming DL-alpha lipoic acid in an extruded food; type: in vivo, dog
Description: (§1) 30 adult, random source, dogs were utilized for this study. Dogs were at least 10 months of age, not pregnant, not lactating and of reasonable body weight prior to start of test. Animals were randomized into 5 groups for dietary treatment with 3 males and 3 females per each group.
All dogs were fed a control food (0 ppm dl-alpha-lipoic acid added) that met or exceeded all recommendations for nutrients as proposed by the American Association of Feed Control Officials (AAFCO 2000) during a 2 week prefeeding period (Table 2). Following the prefeeding period dogs were randomized into 5 treatment groups with one of the following dl-alpha lipoic acid target-inclusions (dry matter basis): 0 ppm, 150 ppm, 1500 ppm, 3000 ppm, 4500 ppm. In all diets, control and alpha lipoic acid, Vitamin E was added and was present at a level of 600-1000 International Units and Vitamin C was added at levels of 100-200 ppm.
Blood was collected aseptically for complete blood count, and blood biochemistry analysis 2 weeks prior to start and again at […], 56, 84, 112, 140 and 168 days of the study. In addition, 15 ml of whole blood was collected for isolation of lymphocytes at day 0, 28 and 84 of the dietary intervention.
Heparinized whole blood was layered onto a 50 ml Accuspin conical centrifuge tube (Sigma Chemical) and an equal volume of Phosphate buffered saline (PBS) was added. Samples were centrifuged at 700 g for 30 minutes without brake. The monocyte layer was harvested, transferred to a 15 ml conical centrifuge tube, resuspended in 1-3 ml of PB, and centrifuged as before (First wash). A second wash was performed as the first wash. Finally, cells were harvested and suspended in perchloric acid (10% w/v) and frozen at −70° C., until analysis.
Samples were transferred from −70° C. freezer into a cooler with dry ice in it. Vials were centrifuged at 12,000 rpm for 5 minutes in a refrigerated centrifuge. An aliquot of supernatant for glutathione (GSH) analysis was transferred to a conical test tube.
Derivatization of the acid soluble extracts was by the method of Reed and coworkers (Fariss et al) as modified by Jones (Jones et al)
Briefly, 150 μL extract or external standards were added into a 1.5 ml Eppendorf tube followed by addition of 20μγ-Glu-Glu internal standard and 50 μL IAA added followed by mixing. The solution was adjusted to pH about 10 (purple color) by using KOH—KHCO3 working solution. Solutions were incubated 1 hr, under room temperature in the dark. Sanger's reagent was added at the same volume as of the total volume and the solution was incubated overnight (20 hrs) in the dark at room temperature.
After incubation, the solution was centrifuged at 12000 rpm for 5 minutes with the supernatant transferred into another 1.5 ml eppendorf tube.
Solvents and separation conditions were as described (Fariss, Jones). Levels of GSH and GSSG were quantified relative to authentic standards. Gamma-glutamyl-glutamate was used as an internal standard to assess derivatization efficiency.
Comparison of values for clinical chemistry, hematology and body weights vs baseline were analyzed by way of paired t-test on SAS for windows with significance set at P<0.05. Means of values at each measured time point were separated by a one-way ANOVA with significance set at P<0.05. The difference in GSH:GSSG between day 84 and baseline were analyzed between groups by way of SAS for windows in a one-way ANOVA with significance set at P<0.05.

dogs [1] = assay: 6 month feeding study of dl-alpha-lipoic acid in dogs: body weight, physical examination, safety; type: in vivo
Description: as §1
All dogs were fed a control food (0 ppm dl-alpha-lipoic acid added) that met or exceeded all recommendations for nutrients as proposed by the American Association of Feed Control Officials (AAFCO 2000) during a 2 week prefeeding period (Table 2). […]
Test foods were the sole source of nutrients except for water. […] After dogs were selected and initial body weights taken, a food dose was calculated for each dog based on the expected ME of the food. Initial food dose calculations were based on the maintenance energy requirement (MER) for the dog modified by a factor to account for normal activity as calculated by the following formula: […]
Dogs were weighed weekly and had food doses adjusted as needed in order to feed enough food to maintain their optimal body weight. Optimal body weight was determined to be 3 on a 5 point scale. […] All measures of body weight and food intake were recorded. […]
Comparison of values for clinical chemistry, hematology and body weights vs baseline were analyzed by way of paired t-test on SAS for windows with significance set at P<0.05. […]

dogs [2] = assay: Body composition (DEXA) of dogs over 90 days; type: in vivo, dog
Description: 30 dogs were used to determine the effect of lipoic acid when compared to an AAFCO control food or a test food containing fish oil.
Table 9 illustrates Dual Energy X-Ray Absorptiometry (DEXA) measurement for dogs after being fed a control diet compared with dogs fed a pet food including lipoic acid for 90 days. The measurement of body fat using DEXA is more accurate than body weight for assessing health. A dog can have a lot of muscle, but be considered “over-weight” by many height/weight charts. The opposite can also be true—a dog can have a lot of fat and little muscle and be “over-fat” but not overweight.

plasma metabolites = assay: Metabolomics: fold change in metabolites measured in the blood at day 30; type: in vivo, dog
Procedure: Metabolomics: Plasma metabolites were analyzed and were compared as fold change relative to the control fed dogs.

[3] = system: genes related to cartilage and energy metabolism; assay: Differential gene expression profile in whole blood (canine 2 Affymetrix genechips); type: in vivo, dog
Description: A differential gene expression profile was studied between an AAFCO control food, a food containing fish oil, and a food containing lipoic acid. At a minimum of 1.3 fold change, a list of 1212 genes was generated compared to the AAFCO control and 1896 genes compared to the food containing fish oil at d 30.
RNA extraction: Total RNAs were isolated from whole blood samples using the PAXgene RNA isolation kit. All measurements were done with the canine 2 Affymetrix genechips. For statistical analysis, all measurements were normalized with RMA. All analysis was preformed using Partek. An ANOVA t-test was performed for genes that are differentially expressed between the control and test foods were selected based on p-value cutoff 0.1, fold change >+/−1.3.

dogs [4] = assay: Percentage of animals classifying genomically fat; type: in vivo, dog
Description: Table 6 illustrates the percentage of dogs classified as genomically fat after being fed a control diet compared with dogs fed a control plus fish oil and a control plus lipoic acid for 30 days.

[5] = system: type II collagen C-propeptide and carboxy-terminal crosslinked telopeptide fragment of type II collagen; assay: Serum cartilage markers by ELISA; type: in vivo, dog; details: vs a similar food without lipoic acid, day 0 as covariate
Procedure: Biomarker measurements: Serum cartilage markers were measured using ELISA based kits to determine concentrations of cartilage markers. Day 0 was used as a covariate in the analysis to adjust for baseline values.

[6] = body composition over 90 days, dogs
[7] = dogs fed a food containing lipoic acid
[8] = day 30, day 0 values as covariate
[9] = lipoic acid vs. control, cartilage metabolism
[10] = lipoic acid vs. control, energy metabolism
[11] = lipoic acid vs. fish oil, cartilage metabolism
[12] = lipoic acid vs. fish oil, energy metabolism

## O=C(O)CCCCC1CCSS1 (racemic) [Lipoic Acid, dl-alpha-lipoic acid]
GSH:GSSG ratio; 150 ppm inclusion in extruded food, mean +/- spread
  Difference in GSH:GSSG ratio- day 0 to day 84 compared to baseline food: 70 +/− 20
GSH:GSSG ratio; 1,500 ppm inclusion in extruded food
  Difference in GSH:GSSG ratio- day 0 to day 84 compared to baseline food: 24 +/− 7
GSH:GSSG ratio; 3,000 ppm inclusion in extruded food
  Difference in GSH:GSSG ratio- day 0 to day 84 compared to baseline food: 10 +/− 4
GSH:GSSG ratio; 4,500 ppm inclusion in extruded food
  Difference in GSH:GSSG ratio- day 0 to day 84 compared to baseline food: 50 +/− 36
GSH:GSSG ratio; chronic feeding in diet
  Effect on GSH to GSSG ratio: improves the reduced glutathione (GSH) to oxidized glutathione (GSSG) ratio
Dogs [1]; 4500 ppm inclusion group, change appeared to reverse by 6 months
  Body weight: some weight loss occurred initially
Dogs [1]; dog, in vivo
  Chronic feeding in diet: safety: safe and effective
Dogs [2]; 90 day treatment period, vs control and control plus fish oil
  Change in weight: greatest change in weight
Dogs [2]; [6]
  Total Weight: 13,800 g
  Total fat: 2788.3 g
Dogs [2]; [7]
  Body fat: lost fat
Dogs [2]; over 90 days, dogs
  Change in fat: -587.2 g
  Change in weight: -637.5 g
Plasma metabolites; 30 day treatment period, vs control and control plus fish oil
  Change in pyruvate blood levels: greatest change in pyruvate blood levels
Plasma metabolites; after 30 days, control plus lipoic acid
  Kidney markers in blood: decreased kidney markers
Plasma metabolites; [8]
  Fold change in pyruvate measured in the blood, Lipoic acid vs Control: 0.5379
  Fold change in pyruvate measured in the blood, Lipoic acid vs Fish oil: 0.6274
Plasma metabolites; [7]
  Plasma hydroxyproline: reduced in plasma
[3]; [9]
  Fold change 12-lipooxygenase: −1.3
  Fold change Chondroitan sulfate synthase 1: 1.4
  Fold change Facilitated glucose transporter 9: 1.4
  Fold change Prolyl hydroxylase alpha 1: 1.4
  Fold change Prolyl hydroxylase alpha 2: 1.3
  Fold change TIMP1: 1.3
  Fold change chondroitan sulfate proteoglycan 2 (veriscan): 1.5
  Fold change heparan sulfate N-deacetylase/N-sulfotransferase 2: 1.3
[3]; [10]
  Fold change 5′ AMP alpha 1: 1.3
  Fold change 5′ AMP beta 1: 1.3
  Fold change 5′ AMP gamma 2: 1.4
  Fold change Facilitated glucose transporter 1: 1.3
  Fold change Facilitated glucose transporter 6: 1 .3
  Fold change Fatty acid desaturase 1: 1.9
  Fold change Hexokinase 3: 1.3
  Fold change PDK4: 1.4
  Fold change PPAR gamma: 1.3
  Fold change Succinyl CoA ligase alpha: 1.3
[3]; [11]
  Fold change 12-lipooxygenase: −1.3
  Fold change ADAMTS-2: −1.3
  Fold change ADAMTS-10: −1.3
  Fold change ADAMTS-16: −1.3
  Fold change Chondroitan sulfate synthase 1: 1.3
  Fold change Facilitated glucose transporter 9: 1.4
  Fold change Fibronectin 1: 1.4
  Fold change Lysyl hydroxylase: 1.3
  Fold change MMP2: −1.3
  Fold change MMP7: −1.3
  Fold change N-acetylgalactosaminyltransferase 1: 1.3
  Fold change Transforming growth factor beta receptor 1: 1.3
  Fold change chondroitan sulfate proteoglycan 2 (veriscan): 1.5
[3]; [12]
  Fold change 5′ AMP alpha 1: 1.3
  Fold change 5′ AMP beta 1: 1.3
  Fold change 5′ AMP gamma 2: 1.5
  Fold change Facilitated glucose transporter 1: 1.3
  Fold change Facilitated glucose transporter 6: 1.4
  Fold change Hexokinase 3: 1.3
  Fold change PDK4: 1.6
  Fold change PPAR gamma: 1.3
  Fold change SREBP-1: −1.3
  Fold change Succinyl CoA ligase alpha: 1.3
  Fold change Succinyl CoA ligase beta: 1.3
  Fold change cAMP responsice element modulator: 1.3
Dogs [4]; after a 30 day treatment period, control plus lipoic acid
  Genomic resemblance to physically fat dogs: genomically did not resemble physically fat dogs
Dogs [4]; d 30, dogs
  Percentage of animals at d 30 that classified fat using genomic markers: 0%
[5]
  Change in carboxy-terminal crosslinked telopeptide fragment of type II collagen: greater decrease
  Change in type II collagen C-propeptide: greater decrease
